Reference: ChEMBL document CHEMBL2407022, “Advancement of Imidazo[1,2-a]pyridines with Improved Pharmacokinetics and Nanomolar Activity Against Mycobacterium tuberculosis” (ACS Med Chem Lett, 2013)
Converted amounts (≈) assume the structure as drawn.

What was measured:
Format in all cases: functional
Settings in all cases: 336 h
[1] = system: Mycobacterium tuberculosis; assay: Antimycobacterial activity against isoniazid, rifampin, ethambutol, kanamycin and ofloxacin-resistant Mycobacterium tuberculosis after 14 days
[2] = system: Mycobacterium tuberculosis; assay: Antimycobacterial activity against isoniazid, rifampin, ethambutol, kanamycin and rifabutin-resistant Mycobacterium tuberculosis after 14 days
[3] = system: Mycobacterium tuberculosis; assay: Antimycobacterial activity against isoniazid, rifampin, ethambutol, streptomycin, kanamycin and ofloxacin-resistant Mycobacterium tuberculosis after 14 days

| Structure (SMILES) | MIC99 [1] [µM] | MIC99 [2] [µM] | MIC99 [3] [µM] |
| --- | --- | --- | --- |
| Cc1ccc2nc(C)c(C(=O)NCc3ccccc3)n2c1 | < 0.04 | 2.3 (≈ 0.642 µg/mL) | < 0.04 |
| Cc1ccn2c(C(=O)NCc3ncc(C(F)(F)F)cc3Cl)c(C)nc2c1 |  | 13 (≈ 4.98 µg/mL) | 0.8 (≈ 0.306 µg/mL) |
| Cc1ccn2c(C(=O)NCc3ccc(Oc4ccc(F)cc4)cc3)c(C)nc2c1 | < 0.03 | 0.8 (≈ 0.312 µg/mL) | < 0.03 |
| O=[N+]([O-])c1cn2c(n1)OC[C@@H](OCc1ccc(OC(F)(F)F)cc1)C2 [PRETOMANID] | 0.2 (≈ 0.0719 µg/mL) | 0.5 (≈ 0.18 µg/mL) | 0.9 (≈ 0.323 µg/mL) |
